Data set [1] can be described thus: log P determination by HPLC on reversed-phase column (C18), acidic range. The class given is physicochemical. Conditions: LC-UV, formic acid in water/acetonitrile. The method, then: log P Values The log P values were determined according to EEC Directive 79/831 Annex V.A8 by HPLC (high-performance liquid chromatography) on a reversed-phase column (C18) using the following methods: ^[a] […] Calibration was carried out using a homologous series of straight-chain alkan-2-ones (having 3 to 16 carbon atoms) with known log P values. The values between successive alkanones are determined by linear regression.

For data set [2], the system named is Spodoptera frugiperda. The data set is described as follows: Spodoptera frugiperda spray test. The class given is in vivo. Conditions: 100 g/ha, maize leaf discs, after 7 days. The method, then:
Spodoptera frugiperda—Spray Test
(§1) Solvent: 78.0 parts by weight of acetone • • 1.5 parts by weight of dimethylformamide
(§2) Emulsifier: alkylaryl polyglycol ether
(§3) To produce a suitable active compound preparation, 1 part by weight of active compound is dissolved using the stated parts by weight of solvent and made up with water containing an emulsifier concentration of 1000 ppm until the desired concentration is attained. To produce further test concentrations, the formulation is diluted with emulsifier-containing water.
Leaf discs of maize (Zea mays) are sprayed with an active compound formulation of the desired concentration and, after drying, populated with caterpillars of the fall armyworm (Spodopterafrugiperda).
After 7 days, the efficacy in % is determined. 100% means that all the caterpillars have been killed; 0% means that no caterpillar has been killed.

The subject of data set [3] is Ctenocephalides felis. The data set is described as follows: Ctenocephalides felis oral test. The class given is in vivo. Conditions: 100 ppm in citrated cattle blood, adult cat fleas, after 2 days. How it is done: Ctenocephalides felis—Oral Test
Solvent: dimethyl sulfoxide
To produce a suitable active compound formulation, 10 mg of active compound are mixed with 0.5 ml of dimethyl sulfoxide. Dilution with citrated cattle blood gives the desired concentration.
About 20 unfed adult cat fleas (Ctenocephalidesfelis) are placed into a chamber which is closed at the top and bottom with gauze. A metal cylinder whose bottom end is closed with parafilm is placed onto the chamber. The cylinder contains the blood/active compound formulation, which can be imbibed by the fleas through the parafilm membrane.
After 2 days, the kill in % is determined. 100% means that all of the fleas have been killed; 0% means that none of the fleas have been killed.

Data set [4] deals with Boophilus microplus. The data set is described as follows: Boophilus microplus injection test. The class given is in vivo. As to conditions: 20 μg/animal, injection into engorged adult female cattle ticks, assessed after 7 days. The method, then:
Boophilus microplus—Injection Test Solvent: dimethyl sulfoxide To produce a suitable active compound formulation, 10 mg of active compound are mixed with 0.5 ml of solvent and the concentrate is diluted to the desired concentration with solvent. 1 μl of the active compound solution is injected into the abdomen of 5 engorged adult female cattle ticks (Boophilus microplus). The animals are transferred into dishes and kept in a climate-controlled room. Efficacy is assessed after 7 days by laying of fertile eggs. Eggs which are not visibly fertile are stored in a climate-controlled cabinet until the larvae hatch after about 42 days. An efficacy of 100% means that none of the ticks has laid any fertile eggs; 0% means that all the eggs are fertile.

Data set [5] concerns Myzus persicae. The data set is described as follows: Myzus persicae oral test. It is filed as in vivo. Conditions: 120 h, oral uptake from microtitre plates, after 5 days, read-out: efficacy (aphids killed). How it is done: Myzus persicae—Oral Test Solvent: 100 parts by weight of acetone To produce a suitable preparation of active compound, 1 part by weight of active compound is dissolved using the specified parts by weight of solvent and made up with water until the desired concentration is attained. 50 μl of the active compound preparation are transferred into microtitre plates and made up to a final volume of 200 μl with 150 μl of IPL41 insect medium (33%+15% sugar). Subsequently, the plates are sealed with parafilm, which a mixed population of green peach aphids (Myzus persicae) within a second microtitre plate is able to puncture and imbibe the solution through. After 5 days, the efficacy in % is determined. 100% means that all the aphids have been killed; 0% means that no aphids have been killed.

The test system of data set [6] is Myzus persicae. As to the kind of experiment: Myzus persicae spray test. The class given is in vivo. As to conditions: foliar, 120 h, Chinese cabbage leaf discs, after 5 days, read-out: efficacy (aphids killed). The method, then: Myzus persicae—Spray Test Solvent: 78 parts by weight of acetone • • 1.5 parts by weight of dimethylformamide Emulsifier: alkylaryl polyglycol ether To produce a suitable active compound preparation, 1 part by weight of active compound is dissolved using the stated parts by weight of solvent and made up with water containing an emulsifier concentration of 1000 ppm until the desired concentration is attained. To produce further test concentrations, the formulation is diluted with emulsifier-containing water. Discs of Chinese cabbage leaves (Brassica pekinensis) infested by all stages of the green peach aphid (Myzus persicae) are sprayed with an active compound formulation of the desired concentration. After 5 days, the efficacy in % is determined. 100% means that all the aphids have been killed; 0% means that no aphids have been killed.

In data set [7] the test system is Phaedon cochleariae. The data set is described as follows: Phaedon cochleariae spray test. It is filed as in vivo. Conditions: 100 g/ha, Chinese cabbage leaf discs, after 7 days. How it is done: Phaedon cochleariae—Spray Test
as §1, §2, §3
Discs of Chinese cabbage leaves (Brassica pekinensis) are sprayed with an active compound formulation of the desired concentration and, after drying, populated with larvae of the mustard beetle (Phaedon cochleariae).
After 7 days, the efficacy in % is determined. 100% means that all the beetle larvae have been killed; 0% means that no beetle larvae have been killed.

For data set [8], the system named is Meloidogyne incognita. As to the kind of experiment: Meloidogyne incognita test. It is filed as in vivo. As to conditions: 20 ppm, lettuce in sand, after 14 days. How it is done:
Meloidogyne incognita test Solvent: 125.0 parts by weight of acetone To produce a suitable active compound formulation, 1 part by weight of active compound is mixed with the stated amount of solvent and the concentrate is diluted to the desired concentration with water. Vessels are filled with sand, active compound solution, an egg/larvae suspension of the southern root-knot nematode (Meloidogyne incognita) and lettuce seeds. The lettuce seeds germinate and the plants develop. The galls develop on the roots. After 14 days, the nematicidal efficacy in % is determined by the formation of galls. 100% means that no galls were found; 0% means that the number of galls on the treated plants corresponds to the untreated control.

Data set [9] deals with Diabrotica balteata. As to the kind of experiment: Diabrotica balteata spray test. The class given is in vivo. As to conditions: 160 μg/cavity, sprayed germinated wheat grains, beetle larvae, after 7 days. How it is done: Diabrotica balteata—Spray Test Solvent: 78 parts by weight of acetone • • 1.5 parts by weight of dimethylformamide Emulsifier: alkylaryl polyglycol ether To produce a suitable active compound preparation, 1 part by weight of active compound is dissolved using the stated parts by weight of solvent and made up with water containing an emulsifier concentration of 1000 ppm until the desired concentration is attained. To produce further test concentrations, the formulation is diluted with emulsifier-containing water. Pre-swollen wheat grains (Triticum aestivum) are incubated in a multiwell plate filled with agar and a little water for one day (5 seed grains per cavity). The germinated wheat grains are sprayed with an active compound preparation of the desired concentration. Subsequently, each cavity is infected with 10-20 beetle larvae of Diabrotica balteata. After 7 days, the efficacy in % is determined. 100% means that all wheat plants have grown as in the untreated, uninfected control; 0% means that no wheat plant has grown.

Data set [10] has as its system Tetranychus urticae. As to the kind of experiment: Tetranychus urticae spray test, OP-resistant. The class given is in vivo. Conditions: 100 g/ha, bean leaf discs, after 6 days. How it is done: Tetranychus urticae—Spray Test, OP-Resistant
as §1, §2, §3
Discs of bean leaves (Phaseolus vulgaris) infested with all stages of the greenhouse red spider mite (Tetranychus urticae) are sprayed with an active compound formulation of the desired concentration.
After 6 days, the efficacy in % is determined. 100% means that all the spider mites have been killed; 0% means that no spider mites have been killed.

For the compound `Cn1c(C(F)(F)F)cc2nc(-c3nc4n(c3Br)CCC(C)(C)C4)n(C)c2c1=O` [2-(3-Bromo-7,7-dimethyl-6,8-dihydro-5H-imidazo[1,2-a]pyridin-2-yl)-3,5-dimethyl-6-(trifluoromethyl)imidazo[4,5-c]pyridin-4-one], in data set [1], the chromatographic logP worked out at 3.14.

In data set [1], `CC1(C)CCn2c(nc(C(=O)O)c2Br)C1` [3-Bromo-7,7-dimethyl-6,8-dihydro-5H-imidazo[1,2-a]pyridine-2-carboxylicacid] came in with a chromatographic logP of 0.67.

`CCS(=O)(=O)c1c(-c2nc3cc(C(F)(F)F)n(C)c(=O)c3n2C)nc2cc(C(F)(F)F)ccn12` [Example I-01, 2-[3-(Ethylsulfonyl)-7-(trifluoromethyl)imidazo[1,2-a]pyridin-2-yl]-3,5-dimethyl-6-(trifluoromethyl)-3,5-dihydro-4H-imidazo[4,5-c]pyridin-4-one]: the “efficacy (caterpillars killed)” value in [2] came out at 100%. In addition, the “efficacy (kill in %)” value in [3] was 95%. Besides, in data set [4], the “efficacy (laying of fertile eggs)” value stood at 100%. This compound also yielded a chromatographic logP in data set [1] of 3.2. In addition, the pest or weed control at 4 ppm in data set [5] is 100%.

`CCS(=O)(=O)c1c(-c2nc3cc(C(F)(F)F)n(C)c(=O)c3n2C)nc2cc(C3(C#N)CC3)ccn12` [Example I-02, 1-{2-[3,5-Dimethyl-4-oxo-6-(trifluoromethyl)-4,5-dihydro-3H-imidazo [4,5-c]pyridin-2-yl]-3-(ethylsulfonyl)imidazo[1,2-a]pyridin-7-yl}cyclopropanecarbonitrile]: the pest or weed control at 100 g/ha in data set [6] turned out to be 100%. In addition, in data set [2], the “efficacy (caterpillars killed)” value is 100%. The “efficacy (kill in %)” value in data set [3] is given as 100%. In addition, the “efficacy (beetle larvae killed)” value in [7] was found to be 100%. The “nematicidal efficacy (formation of galls)” value in data set [8] is recorded as 100%. Besides, the chromatographic logP in [1] was 2.59. For the same compound, in [5], the pest or weed control at 4 ppm turned out to be 100%.

Regarding `CCS(=O)(=O)c1c(-c2nc3cc(C(F)(F)F)n(C)c(=O)c3n2C)nc2n1CCCC2` [Example I-03, 2-[3-(Ethylsulfonyl)-5,6,7,8-tetrahydroimidazo[1,2-a]pyridin-2-yl]-3,5-dimethyl-6-(trifluoromethyl)-3,5-dihydro-4H-imidazo[4,5-c]pyridin-4-one], in data set [6], the pest or weed control at 100 g/ha came to 90%. The chromatographic logP in data set [1] came to 2.03. Moreover, in data set [5], the pest or weed control at 4 ppm was determined as 100%.

Consider `CCS(=O)(=O)c1c(-c2nc3cc(C(F)(F)F)n(C)c(=O)c3n2C)nc2n1CC(C)CC2` (centres unmarked) [Example I-04], for which the pest or weed control at 100 g/ha in data set [6] came to 100%. The pest or weed control at 4 ppm in [5] came to 100%.

In the case of `CCS(=O)(=O)c1c(-c2nc3cc(C(F)(F)F)n(C)c(=O)c3n2C)nc2n1CCC(C)C2` (centres unmarked) [Example I-05], the pest or weed control at 100 g/ha in data set [6] turned out to be 100%. For the same compound, the “nematicidal efficacy (formation of galls)” value in data set [8] is 90%. For the same compound, in data set [5], the pest or weed control at 4 ppm stood at 100%.

Regarding `CCS(=O)(=O)c1c(-c2nc3cc(C(F)(F)F)n(C)c(=O)c3n2C)nc2n1CCC(C(F)(F)F)C2` (centres unmarked) [Example I-06], in data set [2], the “efficacy (caterpillars killed)” value turned out to be 100%. Besides, the pest or weed control at 4 ppm in data set [5] came out at 100%. The same compound gave an efficacy in [9] of 100%.

As to `CCS(=O)(=O)c1c(-c2nc3cc(C(F)(F)F)n(C)c(=O)c3n2C)nc2cc(C(F)(F)C3CC3)ccn12` [Example I-07], in data set [2], the “efficacy (caterpillars killed)” value turned out to be 100%. Also, the pest or weed control at 4 ppm in data set [5] is 100%. Also, the efficacy in [9] is 100%.

On to `CCS(=O)(=O)c1c(-c2nc3cc(C(F)(F)F)n(C)c(=O)c3n2C)nc2cc(C(=O)C3CC3)ccn12` [Example I-08], for which, in [6], the pest or weed control at 100 g/ha stood at 90%. Moreover, the “efficacy (caterpillars killed)” value in data set [2] is listed as 100%. In addition, the pest or weed control at 4 ppm in data set [5] worked out at 100%. The efficacy in [9] is on record as 100%.

On to `CCS(=O)(=O)c1c(-c2nc3cc(C(F)(F)F)n(C)c(=O)c3n2C)nc2n1CCC(C)C2C` (centres unmarked) [Example I-09], for which the pest or weed control at 100 g/ha in data set [6] was 90%. Moreover, the pest or weed control at 4 ppm in data set [5] came to 100%. In data set [10], the “efficacy (spider mites killed)” value is listed as 90%. In addition, in data set [9], the efficacy is reported as 100%.

On to `CCS(=O)(=O)c1c(-c2nc3cc(C(F)(F)F)n(C)c(=O)c3n2C)nc2n1CCC(C)(C)C2` [Example I-10, 2-(3-Ethylsulfonyl-7,7-dimethyl-6,8-dihydro-5H-imidazo[1,2-a]pyridin-2-yl)-3,5-dimethyl-6-(trifluoromethyl)imidazo[4,5-c]pyridin-4-one], for which the pest or weed control at 100 g/ha in data set [6] came to 90%. This compound had a chromatographic logP in data set [1] of 2.66. The pest or weed control at 4 ppm in data set [5] is 100%. This compound displayed an efficacy in data set [9] of 100%.

On to `CCS(=O)(=O)c1c(-c2nc3cc(C(F)(F)F)n(C)c(=O)c3n2C)nc2n1CCCC2C` (centres unmarked) [Example I-11], for which the pest or weed control at 100 g/ha in data set [6] is 90%. Besides, the pest or weed control at 4 ppm in data set [5] worked out at 100%. This compound also displayed an efficacy in data set [9] of 100%.

For `CCS(=O)(=O)c1c(-c2nc3cc(C(F)(F)F)n(C)c(=O)c3n2C)nc2cc(S(=O)(=O)C3CC3)ccn12` [Example I-12, 2-[7-(Cyclopropylsulfonyl)-3-(ethylsulfonyl)imidazo[1,2-a]pyridin-2-yl]-3,5-dimethyl-6-(trifluoromethyl)-3,5-dihydro-4H-imidazo[4,5-c]pyridin-4-one], the “efficacy (caterpillars killed)” value in data set [2] was determined as 100%. For the same compound, the chromatographic logP in data set [1] was 2.59. The pest or weed control at 4 ppm in [5] was 100%. The same compound showed an efficacy in [9] of 100%.

The record behind these values is US20210017193A1, “CONDENSED BICYCLIC HETEROCYCLIC DERIVATIVES AS PEST CONTROL AGENTS” (Bayer Aktiengesellschaft, priority 2018, published 2021).
